The results in this text go back to patent US9278087B2, “Derivative of butylphthalide and preparation method and use thereof” (Shijiazhuang Yiling Pharmaceutical Co., Ltd, priority 2011, dated 2016).

Structures can show the parent of a compound that is named as a salt. Where two headings read alike, the source gives them in different places. Marks after values point to notes of the source that are not given here.

Data set [1] deals with rats with local ischemia. The data set can be described thus: Volume of cerebral infarction in tMCAO rats, gavage administration. Format: in vivo, Wistar rats. As to conditions: for Volume of cerebral infarction (25 mg/kg group): 25 mg/kg oral (gavage) 10 min after ischemia; for Volume of cerebral infarction (25 mg/kg group) / Volume of cerebral infarction (50 mg/kg group) / Volume of cerebral infarction (100 mg/kg group): 2 hr ischemia, 24 hr reperfusion; for Volume of cerebral infarction (50 mg/kg group): 50 mg/kg oral (gavage) 10 min after ischemia; for Volume of cerebral infarction (100 mg/kg group): 100 mg/kg oral (gavage) 10 min after ischemia; for Effect on the volume of cerebral infarction, in words: oral administration, compared with solvent control group. The method, then: (§1) Wistar rats, body weight 250˜280 g, were raised separately before and after the surgical operation, and kept at room temperature of 23˜25° C. All the rats were allowed ad libitum access to food and water. tMCAO models were prepared according to the method of longa, et al. Rats were anaesthetized with 10% chloral hydrate (350 mg/kg, i.p.), and the body temperature was maintained at 37±0.5° C. The rat was fixed in supine position onto an operating table. The skin was cut along the midline of the neck, and the common carotid artery (CCA), external carotid artery (ECA) and internal carotid artery (ICA) on the right side were carefully isolated. The ECA was ligated and cut, and straightened in line with the ICA. A small incision was cut on the ECA, and a 4.0 cm long round-head silicified nylon thread with a diameter of 0.26 mm (coated with 0.1% polylysine) was inserted through this incision into the ICA for about 1.85˜2.00 cm, until the starting place of the anterior cerebral artery of the rat, to block the blood supply of the middle cerebral artery. After 2 hr of ischemia, the nylon thread was pulled out carefully, the ECA incision was ligated, and the operational incision was sutured. The animal was returned to the cage for 24 hr reperfusion.
Rats were randomly divided into 12 groups: model control group, water for injection (100 mg/kg), the administration group of the Compound 7 in Example 1 (25, 50, 100 mg/kg), the administration group of the Compound 8 in Example 1 (25, 50, 100 mg/kg), the administration group of DL-3-(3′-hydroxy)-butylphthalide (DL for short) (25, 50, 100 mg/kg). They were orally administered 10 min after the ischemia caused by MCA blockage.
(§2) After reperfusion injury in the rat for 24 hr, the rat was beheaded and the brain was taken out immediately. The olfactory tract, the cerebellum and the low brain stem were removed. The brain was coronally cut into 6 slices (the first slice to the fifth slice was 2 mm/slice, and the sixth slice was 4 mm), and they were rapidly placed into 5 ml solution containing 1.5 ml 4% TTC and 0.1 ml 1 M K2HPO4 to stain (37° C., shielded from light) for 20˜30 min, wherein they are flipped once every 5 min. After the TTC staining, the normal tissue was dark stained and appeared red, and the infarcted tissue appeared white. Each group of brain slices were neatly arranged and were taken photos for preservation. The infarction area in each slice was calculated, and the infarction volume was finally converted by superposition. The infarction volume was expressed in percentage in a cerebral hemisphere, to eliminate the effects of cerebral edema. Brain infarction volume(%)=(volume of the contralateral hemisphere to the operated side−volume of uninfarcted portion of the operated hemisphere)/volume of the contralateral hemisphere to the operated side*100% (4) Experimental Results

Data set [2] concerns mice induced by pentobarbital sodium. Nature of the data set: Hypnosis test of pentobarbital sodium in dosage above threshold. As to conditions: for Time for falling asleep / Sleeping time: 25 mg/kg gavage for 30 days, pentobarbital sodium 50 mg/kg i.p.; for Sleeping time: within 60 min; for Effect of improving sleep, in words: oral administration to mice for 30 days, summary of both hypnosis tests. Format: in vivo, Kunming mice. The method, then:
(§3) Source of animals: Kunming mice, 18˜22 g, male, were clean grade animals provided by Guangdong Medical Lab Animal Center. In the breeding room of the experimental animals, the temperature was 22±2° C., the relative humidity was 55˜70%, and the animal feed was provided by Guangdong Medical Lab Animal Center.
(§4) 3 groups of Compound 7, Compound 8, DL-3-(3′-hydroxy)-butylphthalide (DL for short) were set in the experiment, 25 mg/kg respectively. And distilled water control group was additionally set.
(§5) Sample processing: 25 mg respective sample was taken, and added with distilled water to 20 ml, to form a uniform suspension, for use in the test.
(§6) Route for administration: gavage
(§7) 40 male mice with a body weight of 18˜22 g were selected, and randomly divided into 4 groups, 10 mice in each group. They were consecutively administered with samples for 30 days, and 15 min after the administration of the samples by gavage on the 30th day, each group of animals were i.p. injected with 50 mg/kg.b.w pentobarbital sodium, and the injection amount was 0.2 ml/20 g.b.w. The criterion for judging falling asleep was that the righting reflex in a mouse disappeared for 1 min or more. The time for falling asleep and the sleeping time of each group of animals within 60 min were observed after administration of pentobarbital sodium.

The test system is the same in data set [3]. The data set can be described thus: Hypnosis test of pentobarbital sodium in dosage below threshold. As to conditions: for Incidence of sleep / Number of animals falling asleep: 25 mg/kg gavage, pentobarbital sodium 30 mg/kg i.p., within 25 min; for Number of animals falling asleep: 10 animals per group; for Number of animals falling asleep and incidence of sleep compared with control group, in words: pentobarbital sodium in dosage below threshold. The format is in vivo, Kunming mice. The procedure: as §3, §4, §5, §6
as §7, with “for 28” for “for 30”, “with 30” for “with 50”, “for” for “for falling asleep and”, “the occurrence of sleep” for “the sleeping time”, “within 25” for “within 60”

Data set [4] can be described thus: Solubility in water. The format is physicochemical.
The subject of data set [5] is rats with local ischemia. The format is in vivo. The method, then: as §1, §2
Rats of the ischemia blocking model in Example 11 were taken, and randomly divided into 12 groups: sham operation group, model control group, (water for injection, 10 mg/kg), 1a group (2.5 mg/kg, 5.0 mg/kg, 10 mg/kg), 1b group (2.5 mg/kg, 5.0 mg/kg, 10 mg/kg), and 1c group (2.5 mg/kg, 5.0 mg/kg, 10 mg/kg). 10 min after ischemia caused by MCA blockage, they were administered intravenously.
The determination of the volume of cerebral infarction was the same to Example 4.

[6] abbreviates: 2.5 mg/kg intravenous 10 min after ischemia, 2 hr ischemia, 24 hr reperfusion.
Setting [7] is: 5.0 mg/kg intravenous 10 min after ischemia, 2 hr ischemia, 24 hr reperfusion.
Where [8] appears, read: 10.0 mg/kg intravenous 10 min after ischemia, 2 hr ischemia, 24 hr reperfusion.

As to `CC(O)CCC1OC(=O)c2ccccc21` (racemic) [DL, DL-3-(3′-hydroxy)-butylphthalide, reference compound], in data set [1], the “Volume of cerebral infarction (25 mg/kg group)” value (“Volume … (25 mg/kg group)” below) is reported as 17.2%; the “Volume of cerebral infarction (50 mg/kg group)” value (shortened to “Volume … (50 mg/kg group)”) is listed as 16.4%; the “Volume of cerebral infarction (100 mg/kg group)” value is on record as 14.5%; the “Effect on the volume of cerebral infarction, in words” value (“Effect on the volume” for short) is recorded as “can significantly reduce the volume of cerebral infarction”. Also, in data set [2], the “Time for falling asleep” value was 4.68 ± 1.35 min; the Sleeping time came out at 45.48 ± 11.23 min; the “Effect of improving sleep, in words” value is “have effects of improving sleep”. Moreover, in data set [3], the Incidence of sleep amounted to 50%; the “Number of animals falling asleep” value came to 5; the “Number of animals falling asleep and incidence of sleep compared with control group, in words” value is given as “have significant difference”.
Consider `CC(O)CC[C@H]1OC(=O)c2ccccc21` (single isomer, unassigned; (+)) [Compound 7], for which, in data set [1], the “Volume … (25 mg/kg group)” value amounted to 19.8%; the “Volume … (50 mg/kg group)” value is 18.9%; the “Effect on the volume” value is listed as “did not effectively reduce the volume of cerebral infarction”. Further, in data set [1] (listed as R-configuration), the “Effect on the volume” value is listed as “cannot affect the cerebral infarct volume”. In addition, the “Effect on the volume” value in data set [1] (listed as compound in R-configuration) is reported as “does not have the effect of reducing the cerebral infarct volume”. In data set [2], the “Time for falling asleep” value amounted to 5.78 ± 1.88 min; the Sleeping time is 41.16 ± 7.80 min; the “Effect of improving sleep, in words” value is listed as “does not have the effect of improving sleep”. Moreover, in data set [3], the Incidence of sleep was 30% and the “Number of animals falling asleep” value is on record as 3.
On to `CC(O)CC[C@@H]1OC(=O)c2ccccc21` (single isomer, unassigned; (-)) [Compound 8], for which, in data set [1], the “Volume … (25 mg/kg group)” value was found to be 14.6%; the “Volume … (50 mg/kg group)” value is on record as 13.8%; the “Volume of cerebral infarction (100 mg/kg group)” value worked out at 11.8%; the “Effect on the volume” value is reported as “can significantly reduce the volume of cerebral infarction”. Besides, the “Effect on the volume” value in data set [1] (listed as S-configuration) is reported as “decreasing the cerebral infarct volume”. Moreover, in data set [2], the “Time for falling asleep” value worked out at 3.91 ± 0.99 min; the Sleeping time is on record as 53.28 ± 11.12 min; the “Effect of improving sleep, in words” value is reported as “have effects of improving sleep”. In data set [2] (listed as S-configuration), the “Effect of improving sleep, in words” value is reported as “can improve the sleeping state in animals”. The “Effect of improving sleep, in words” value in data set [2] (listed as S-configuration of the Metabolite I) is recorded as “has the effect of improving sleep”. Further, in data set [2] (pentobarbital sodium in dosage above threshold), the “Time for falling asleep and sleeping time compared with control group, in words” value is on record as “have significant difference”. For the same compound, in data set [3], the Incidence of sleep is reported as 80* %; the “Number of animals falling asleep” value was 8*; the “Number of animals falling asleep and incidence of sleep compared with control group, in words” value was “have significant difference”. Moreover, the “Solubility in water, in words” value in data set [4] was “insoluble in water”.
For `CC(CC[C@@H]1OC(=O)c2ccccc21)OC(=O)CCC(=O)[O-].[Na+]` (stereo partly drawn) [Compound 1a, sodium salt of (S)-3-(3′-succinate ester)butylphthalide], the “Volume of cerebral infarction (2.5 mg/kg group)” value (“Volume … (2.5 mg/kg group)” for short) in data set [5] (setting [6]) is 21%. In data set [5] (setting [7]), the “Volume of cerebral infarction (5.0 mg/kg group)” value (“Volume … (5.0 mg/kg group)” for short) stood at 15.4%. The “Volume of cerebral infarction (10.0 mg/kg group)” value (“Volume … (10.0 mg/kg group)” for short) in data set [5] (setting [8]) is recorded as 11.8%.
For `CC(CC[C@@H]1OC(=O)c2ccccc21)OC(=O)CN` (stereo partly drawn) [Compound 1b, (S)-3-(3′-glycinate ester)butylphthalide hydrochloride], in data set [5] (rat, in vivo), the “Volume … (2.5 mg/kg group)” value is 21.3%, the “Volume … (5.0 mg/kg group)” value is on record as 16.0% and the “Volume … (10.0 mg/kg group)” value came out at 12.0%.
For the compound `CC(CC[C@@H]1OC(=O)c2ccccc21)OP(=O)([O-])[O-].[Na+].[Na+]` (stereo partly drawn) [Compound 1c, (S)-3-(3′-phosphate ester)butylphthalide disodium salt], the “Volume … (2.5 mg/kg group)” value in data set [5] (setting [6]) was 20.6%. Moreover, in data set [5] (setting [7]), the “Volume … (5.0 mg/kg group)” value is given as 15.8%. Besides, in data set [5] (setting [8]), the “Volume … (10.0 mg/kg group)” value is reported as 11.7%.
